The values below come from ChEMBL document CHEMBL1201862, “PubChem BioAssay data set” (2004).

Holding throughout (assay): DTP human tumour cell line panel, 48 h
The test system of assay [1] is U-251.
Assay [2] deals with UO-31.
The subject of assay [3] is HCT-15.
Assay [4] concerns ACHN.
Assay [5] deals with UACC-257.
Assay [6] concerns UACC-62.
The subject of assay [7] is SNB-19.
The subject of assay [8] is 786-0.
Assay [9] concerns OVCAR-8.
The subject of assay [10] is RPMI-8226.
Assay [11] relates to COLO 205.
Assay [12] has as its system LXFL 529.
In assay [13] the test system is HOP-62.
Assay [14] has as its system NCI-H226.
The test system of assay [15] is SR.
Assay [16] has as its system LOX IMVI.

Each structure is given as a SMILES string.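 Where inhibition never reached the appropriate level, the endpoint shown equals the highest concentration tested. Otherwise, values were interpolated linearly from a five-concentration, 48-hour dose response in 96-well plates. GI50 = concentration required for 50% inhibition of growth.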 Calls of active or inactive are those of the source. No stated cut-off is given here; in the data, active = GI50 up to about 1.1 µM and inactive = higher. Some results are limits rather than exact numbers.

On to `CC(=O)NC(CCCNC(=O)NCCCl)C(=O)NCc1ccccc1` (configuration not stated), for which the GI50 (in general, the concentration giving 50% growth inhibition) in [1] is > 100 µM (inactive); in assay [2], > 100 µM (inactive); in [3], more than 100 µM; in assay [4], > 100 µM (inactive); in assay [5] it was > 100 µM (inactive); in assay [6] it was > 100 µM (inactive). The GI50 in assay [7], in [8], in assay [9], in assay [10], in [11] and in assay [12] was > 100 µM (inactive) in each case. For the same compound, the GI50 in [13], in assay [14] and in [15] was > 100 µM (inactive) in each case.
For `C/C(=N\NC(C)(C)C)c1sc(-c2nc(C)c(/C(C)=N/NC(C)(C)C)s2)nc1C`, the GI50 in [1] is > 100 µM (inactive); in assay [2] it was > 100 µM (inactive); in [3] it was more than 100 µM; in assay [4], > 100 µM (inactive); in [5], > 100 µM (inactive); in assay [6] it was > 100 µM (inactive). Moreover, the GI50 in [7], in assay [8], in assay [16], in [9], in assay [10] and in assay [11] was > 100 µM (inactive) throughout. The GI50 in assay [12], in assay [14] and in assay [15] was > 100 µM (inactive) in each case.
Regarding `CN(c1ccccc1)C1C(=O)N(c2ccccc2)C1/C=C/c1ccccc1` (configuration not stated), the GI50 in [1] is > 100 µM (inactive); in assay [2] it was > 100 µM (inactive); in assay [4], > 100 µM (inactive); in assay [5] it was > 100 µM (inactive); in assay [6] it was 72.6 µM (inactive); in assay [7], > 100 µM (inactive). In addition, the GI50 in [8], in assay [9], in assay [10], in assay [11], in assay [12] and in assay [14] was > 100 µM (inactive) each time. Further, in assay [15], the GI50 was > 100 µM (inactive).
`CN(C)CN(C)c1nc(N(C)C)nc(N(C)C)n1`: the GI50 was > 100 µM (inactive) in [1]; > 100 µM (inactive) in [2]; more than 100 µM in assay [3]; > 100 µM (inactive) in [4]; > 100 µM (inactive) in assay [5]; > 100 µM (inactive) in assay [6]. For the same compound, the GI50 in assay [7], in [8], in [16], in assay [9], in assay [10] and in assay [11] was > 100 µM (inactive) in each case. The GI50 in assay [12] was 84.7 µM (inactive); in assay [13] it was > 100 µM (inactive); in assay [15], > 100 µM (inactive).
For `N#Cc1ccc(/C=N\N2C(=O)c3ccccc3C2=O)cc1`, the GI50 was > 100 µM (inactive) in [2]; more than 100 µM in assay [3]; > 100 µM (inactive) in [4]; > 100 µM (inactive) in assay [5]; > 100 µM (inactive) in assay [6]; > 100 µM (inactive) in assay [7]. Besides, the GI50 in assay [8], in [16], in assay [9], in assay [10], in assay [12] and in assay [13] was > 100 µM (inactive) throughout. Also, the GI50 in assay [14] and in assay [15] was > 100 µM (inactive) throughout.
In the case of `O=C1C=C(Nc2ccccc2C(=O)CC(=O)C(=O)Nc2ccc(Cl)cc2)c2ccccc2C1=O`, the GI50 in assay [1] was 20.1 µM (inactive); in assay [2] it was 14.7 µM (inactive); in [3] it was 10.6 µM; in assay [4] it was 18.2 µM (inactive); in [5], 8.83 µM (inactive); in assay [6] it was 13.3 µM (inactive). Also, the GI50 in assay [7] was 14 µM (inactive); in assay [8], 16.3 µM (inactive); in assay [16], 1.93 µM (inactive); in [9], 6.59 µM (inactive); in [10] it was 3.21 µM (inactive); in [11] it was 17.9 µM (inactive). Besides, the GI50 is 7.52 µM (inactive) in [12], 17.7 µM (inactive) in assay [13], 24.4 µM (inactive) in [14] and > 100 µM (inactive) in assay [15].
As for `Cc1cc(C)c(/C=N/NS(=O)(=O)c2ccccc2)c(C)c1`, the GI50 is > 100 µM (inactive) in [1]; 72.1 µM (inactive) in assay [2]; more than 100 µM in assay [3]; > 100 µM (inactive) in assay [4]; 68.7 µM (inactive) in [5]; > 100 µM (inactive) in assay [6]. Besides, the GI50 was > 100 µM (inactive) in assay [8]; > 100 µM (inactive) in assay [16]; 71.6 µM (inactive) in [9]; 54.5 µM (inactive) in [10]; > 100 µM (inactive) in assay [11]; 62.2 µM (inactive) in [12]. Also, the GI50 was > 100 µM (inactive) in [13], > 100 µM (inactive) in assay [14] and 31.4 µM (inactive) in assay [15].
In the case of `COc1ccc2nc3cc(Cl)ccc3c(Sc3ccccc3[N+](=O)[O-])c2c1`, the GI50 in assay [1] was > 100 µM (inactive); in assay [2], > 100 µM (inactive); in [3], more than 100 µM; in assay [4], > 100 µM (inactive); in assay [5] it was > 100 µM (inactive); in assay [6], > 100 µM (inactive). Besides, the GI50 was > 100 µM (inactive) in [7]; 75.3 µM (inactive) in assay [8]; > 100 µM (inactive) in [16]; > 100 µM (inactive) in assay [9]; 17.3 µM (inactive) in assay [11]; > 100 µM (inactive) in assay [12]. Also, the GI50 in [13] was 69 µM (inactive); in assay [14] it was 17.7 µM (inactive); in assay [15], > 100 µM (inactive).
As for `C=C[C@@]1(C)CCC2(O)C(CCC3C2(C)CCC[C@@]3(C)COC(=O)CC(=O)OC)C1` (some centres not stated), the GI50 in [1] is 17.9 µM (inactive); in assay [2], 22.6 µM (inactive); in [3], 18.4 µM; in assay [4] it was 40.1 µM (inactive); in assay [5], 20.2 µM (inactive); in [6], 17.2 µM (inactive). The GI50 is 31.6 µM (inactive) in [7]; 35.6 µM (inactive) in assay [8]; 16.5 µM (inactive) in [16]; 23.1 µM (inactive) in [9]; 19.8 µM (inactive) in assay [10]; 17.3 µM (inactive) in assay [12]. The GI50 was 18.5 µM (inactive) in [13], 26.2 µM (inactive) in assay [14] and 22.2 µM (inactive) in assay [15].
With `C=C1C(=O)O[C@H]2[C@H]1[C@H](OC(=O)/C(C)=C\C)CC(=C)[C@@H]1[C@H](O)[C@H]3O[C@@]3(C)[C@@]12O` [EUPATUNDIN], the GI50 is > 100 µM (inactive) in [1]; > 100 µM (inactive) in assay [2]; more than 100 µM in assay [3]; > 100 µM (inactive) in [4]; > 100 µM (inactive) in assay [6]; > 100 µM (inactive) in [7]. In addition, the GI50 in assay [8], in [16], in [9], in [10], in [11] and in assay [12] was > 100 µM (inactive) in each case. The GI50 in assay [13] and in assay [15] was > 100 µM (inactive) each time.
